Experimental data reported in patent US20250154134A1, “COMPOUND AS FAK INHIBITOR AND USE THEREOF” (WIGEN BIOMEDICINE TECHNOLOGY (SHANGHAI) CO., LTD., priority 2022, published 2025).

Experiments:
PC3 cells [1] = test: PC3 cell proliferation, 2D activity assay (Cell Titer-Lumi, 72 h); format: cell-based, human; conditions: Homo sapiens, PC-3, read-out: 2D inhibitory activity against PC3 cells IC50
Experimental: (§1) 2D activity assay: 1200 PC3 cells were seeded in a 96-well plate. After overnight adherence culture, A compound serially diluted was added. […] The growth of the cells was evaluated, and the IC50 of the compound inhibiting cell growth was calculated. 3D activity assay: PC3 cells were seeded in a 96-well plate at 1200 cells/well, and 3D culture was performed. 14 days after a compound serially diluted was added, the growth of the cells was measured. The inhibition percentage and IC50 of the compound were calculated compared to the DMSO control group.

FAK recombinant protein = FAK recombinant protein (Homo sapiens (Human), UniProt Q05397); test: Inhibitory activity against FAK enzyme (HTRF, TK substrate); format: biochemical
Experimental: A compound serially diluted with DMSO was mixed with a FAK recombinant protein. After the mixture was left to stand at room temperature for 10 min, a biotin-labeled TK substrate (TK) and ATP were added. […] The inhibition percentage and IC50 of the compound were calculated compared to the DMSO control group.

PC3 cells [2] = test: PC3 cell proliferation, 3D activity assay (3D culture, 14 days); format: cell-based, human; conditions: Homo sapiens, PC-3, 336 h, read-out: 3D inhibitory activity against PC3 cells IC50
Experimental: as §1

Chain of FAK recombinant protein (Q05397 whole entry): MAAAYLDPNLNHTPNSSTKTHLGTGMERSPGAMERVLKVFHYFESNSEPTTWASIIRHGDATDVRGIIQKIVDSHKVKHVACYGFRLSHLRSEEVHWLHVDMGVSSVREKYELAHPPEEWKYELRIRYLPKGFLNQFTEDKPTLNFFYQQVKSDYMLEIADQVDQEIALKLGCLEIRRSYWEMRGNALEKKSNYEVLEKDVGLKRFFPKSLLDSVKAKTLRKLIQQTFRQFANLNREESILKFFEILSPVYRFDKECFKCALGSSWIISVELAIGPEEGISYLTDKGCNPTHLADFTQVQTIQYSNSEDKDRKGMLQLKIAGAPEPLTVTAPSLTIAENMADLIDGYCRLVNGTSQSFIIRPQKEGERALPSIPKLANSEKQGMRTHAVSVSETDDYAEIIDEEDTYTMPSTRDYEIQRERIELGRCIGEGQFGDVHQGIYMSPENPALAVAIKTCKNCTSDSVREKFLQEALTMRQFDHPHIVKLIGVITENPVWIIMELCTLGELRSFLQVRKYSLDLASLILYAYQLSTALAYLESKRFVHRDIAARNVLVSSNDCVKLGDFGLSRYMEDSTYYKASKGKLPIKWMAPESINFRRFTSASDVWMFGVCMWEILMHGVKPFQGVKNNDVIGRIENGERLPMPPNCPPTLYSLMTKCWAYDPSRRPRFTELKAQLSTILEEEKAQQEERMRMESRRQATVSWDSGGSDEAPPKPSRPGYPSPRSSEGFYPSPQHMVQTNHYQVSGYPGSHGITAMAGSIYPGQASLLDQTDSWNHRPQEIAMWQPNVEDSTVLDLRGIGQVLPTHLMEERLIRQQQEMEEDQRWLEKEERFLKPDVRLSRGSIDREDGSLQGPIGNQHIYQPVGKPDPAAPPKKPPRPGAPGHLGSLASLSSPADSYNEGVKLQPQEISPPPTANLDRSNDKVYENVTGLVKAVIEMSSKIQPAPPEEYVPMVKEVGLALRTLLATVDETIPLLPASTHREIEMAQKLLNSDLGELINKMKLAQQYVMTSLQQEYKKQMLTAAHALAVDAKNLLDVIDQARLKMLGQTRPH

Row | SMILES | IC50 (PC3 cells [1]) [nM] | IC50 (FAK recombinant protein) [nM] | IC50 (PC3 cells [2]) [nM]
1 | CN1CCn2nc(Nc3ncc(C(F)(F)F)c(Oc4cccc5c4C(=O)N(C)C54CC4)n3)cc2C1 [Compound 96] | > 2000 | < 20 | < 5
2 | CN1CCC(n2ccc(Nc3ncc(C(F)(F)F)c(Oc4cccc5c4C(=O)N(C)C54CC4)n3)n2)CC1 [Compound 97] | > 2000 | < 20 | 5 to 50
3 | Cc1cn(C2CCN(C)CC2)nc1Nc1ncc(C(F)(F)F)c(Oc2cccc3c2C(=O)N(C)C32CC2)n1 [Compound 98] | > 2000 | < 20 | 5 to 50
4 | COc1cc(C(=O)NC2CCN(C)CC2)ccc1Nc1ncc(C(F)(F)F)c(Cc2cccc3c2C(=O)N(C)C32CC2)n1 [Compound 99, 3-methoxy-4-((4-((2′-methyl-3′-oxospiro[cyclopropane-1,1′-isoindolin]-4′-yl)methyl)-5-(trifluoromethyl)pyrimidin-2-yl)amino)-N-(1-methylpiperidin-4-yl)benzamide] | > 2000 | < 20 | 5 to 50
5 | COc1cc(C(=O)NC2CCN(C)CC2)c(F)cc1Nc1ncc(C(F)(F)F)c(Cc2cccc3c2C(=O)N(C)C32CC2)n1 [Compound 100, 2-fluoro-5-methoxy-4-((4-((2′-methyl-3′-oxospiro[cyclopropane-1,1′-isoindolin]-4′-yl)methyl)-5-(trifluoromethyl)pyrimidin-2-yl)amino)-N-(1-methylpiperidin-4-yl)benzamide] | > 2000 | < 20 | 5 to 50
6 | COc1cc(C(=O)NC2CC3(CCN(C)CC3)C2)ccc1Nc1ncc(C(F)(F)F)c(Cc2cccc3c2C(=O)N(C)C32CC2)n1 [Compound 101, 3-methoxy-4-((4-((2′-methyl-3′-oxospiro[cyclopropane-1,1′-isoindolin]-4′-yl)methyl)-5-(trifluoromethyl)pyrimidin-2-yl)amino)-N-(7-methyl-7-azaspiro[3.5]nonan-2-yl)benzamide] | > 2000 | < 20 | 5 to 50
7 | COc1cc(C(=O)NC2CC3(CCN(C)CC3)C2)c(F)cc1Nc1ncc(C(F)(F)F)c(Cc2cccc3c2C(=O)N(C)C32CC2)n1 [Compound 102] | > 2000 | < 20 | 5 to 50
8 | COc1cc(C(=O)NC2CCC3(CC2)CN(C)C3)ccc1Nc1ncc(C(F)(F)F)c(Cc2cccc3c2C(=O)N(C)C32CC2)n1 [Compound 103] | > 2000 | < 20 | 5 to 50
9 | COc1cc(C(=O)NC2CCC3(CCN(C)C3)C2)ccc1Nc1ncc(C(F)(F)F)c(Cc2cccc3c2C(=O)N(C)C32CC2)n1 (stereo not drawn) [Compound 104] | > 2000 | < 20 | 5 to 50
10 | COc1cc(C(=O)NC2COC3(CCN(C)C3)C2)ccc1Nc1ncc(C(F)(F)F)c(Cc2cccc3c2C(=O)N(C)C32CC2)n1 (stereo not drawn) [Compound 105] | > 2000 | < 20 | 5 to 50
11 | COc1cc(C(=O)NC2CCC3(CC2)CCN(C)C3)ccc1Nc1ncc(C(F)(F)F)c(Cc2cccc3c2C(=O)N(C)C32CC2)n1 (stereo not drawn) [Compound 106] | > 2000 | < 20 | 5 to 50
12 | COc1cc(C(=O)NC2CCC3(CC2)CCN(C)CC3)ccc1Nc1ncc(C(F)(F)F)c(Cc2cccc3c2C(=O)N(C)C32CC2)n1 [Compound 107] | > 2000 | < 20 | > 50
13 | COc1cc(C(=O)NC2CCC23CCN(C)CC3)ccc1Nc1ncc(C(F)(F)F)c(Cc2cccc3c2C(=O)N(C)C32CC2)n1 (stereo not drawn) [Compound 108] | > 2000 | < 20 | 5 to 50
14 | COc1cc(C(=O)NC2CCC3(CC2)CCN3C)ccc1Nc1ncc(C(F)(F)F)c(Cc2cccc3c2C(=O)N(C)C32CC2)n1 (stereo not drawn) [Compound 109] | > 2000 | < 20 | 5 to 50
15 | COc1cc(C(=O)NC2CCN3CCN(C)C3C2)ccc1Nc1ncc(C(F)(F)F)c(Cc2cccc3c2C(=O)N(C)C32CC2)n1 (stereo not drawn) [Compound 110] | > 2000 | < 20 | > 50
16 | COc1cc(N2CCN(C)CC2)ccc1Nc1ncc(C(F)(F)F)c(Cc2cccc3c2C(=O)N(C)C32CC2)n1 [Compound 111] | > 2000 | < 20 | 5 to 50
17 | COc1cc(N2CCOCC2)ccc1Nc1ncc(C(F)(F)F)c(Cc2cccc3c2C(=O)N(C)C32CC2)n1 [Compound 112] | > 2000 | < 20 | 5 to 50
18 | COc1cc(N2CCC(N3CCN(C)CC3)CC2)ccc1Nc1ncc(C(F)(F)F)c(Cc2cccc3c2C(=O)N(C)C32CC2)n1 [Compound 113] | > 2000 | < 20 | 5 to 50
19 | COc1cc(C(=O)NC2CCN(C)CC2)ccc1Nc1ncc(C)c(Oc2cccc3c2C(=O)N(C)C32CC2)n1 [Compound 115] | > 2000 | < 20 | > 50
20 | COc1cc(C(=O)NC2CCN(C)CC2)ccc1Nc1ncc(Br)c(Oc2cccc3c2C(=O)N(C)C32CC2)n1 [Compound 116] | > 2000 | < 20 | 5 to 50
